Earlier results in US20190328829A1, “TRIPARTITE COMBINATION THERAPY FOR PROSTATE CANCER” (UNIVERSITY OF MARYLAND, BALTIMORE, priority 2016, published 2019).

What was measured:
testosterone = details: males, continuous administration

Structure (SMILES) | solubility in water | testosterone reduced to castrate levels (testosterone)
O=c1c(-c2ccc(O)cc2)coc2cc(O)cc(O)c12 [Genistein, 5,7-dihydroxy-3-(4-hydroxyphenyl)-chromen-4-one] | virtually insoluble in water | 
CCNC(=O)[C@@H]1CCCN1C(=O)[C@H](CCCNC(=N)N)NC(=O)[C@H](CC(C)C)NC(=O)[C@@H](CC(C)C)NC(=O)[C@H](Cc1ccc(O)cc1)NC(=O)[C@H](CO)NC(=O)[C@H](Cc1c[nH]c2ccccc12)NC(=O)[C@H](Cc1c[nH]cn1)NC(=O)[C@@H]1CCC(=O)N1 [leuprolide acetate, Leuprolide acetate] |  | below 50 ng/dL
